We go through four molecules from paper PMC8401404 (Molecules, 2021).

Each structure is given as a SMILES string. Structures can show the parent of a compound that is named as a salt. Where two headings read alike, the source gives them in different places. Where only a bound is given, the exact number is not on record here.

Usually MIC stands for the least concentration at which growth counts as inhibited. As usually defined, the solubility is how much of the substance goes into solution per volume. For orientation: ΔTm means the change in melting temperature against a reference sample. As usually defined, the melting point is the temperature, or range, at which the solid turns liquid.

One data set concerns S. aureus ATCC 29213. Briefly: Broth microdilution testing (CLSI). It is filed as cell-based, Staphylococcus aureus. The following applies: 16–24h at 37 °C, read-out: MIC S. aureus ATCC 29213. How it is done: (§1) Broth microdilution testing was performed according to CLSI (Clinical Laboratory Standards Institute) guidelines. MIC (minimal inhibitory concentration) value was defined as the last tested concentration of compound at which there is no visible growth of bacteria. […] Clinical and Laboratory Standards Institute (CLSI) guidelines.
A general note: In broth dilution the organism is exposed to a series of concentrations in liquid medium.

A further data set deals with E. coli ATCC 25922. Briefly: Broth microdilution testing (CLSI). Type of data set: cell-based, Escherichia coli. The note with it: broth microdilution, 16–24h at 37 °C, read-out: MIC E. coli ATCC 25922. How it is done:
as §1

The test system of data set [1] is HCC827. The data set is described as follows: MTS cytotoxicity assay, 2D cell culture. The following applies: read-out: Cytotoxicity Assay IC50 ± SD, HCC827 2D. A general note: Tetrazolium assays rely on reduction of a dye to a coloured formazan, in cell work by metabolically active cells.
Data set [2] concerns NCI-H358. The data set is described as follows: MTS cytotoxicity assay, 2D cell culture. The following applies: read-out: Cytotoxicity Assay IC50 ± SD, NCI-H358 2D.
Data set [3] concerns A549. Briefly: MTS cytotoxicity assay, 2D cell culture. The note with it: read-out: Cytotoxicity Assay IC50 ± SD, A549 2D, 72 h, MTS, n = 2.
For data set [4], the system named is HCC827. The data set is described as follows: BrdU proliferation assay, 2D cell culture. Type of data set: cell-based, human. The note with it: HCC827, 2D, BrdU, n = 2, read-out: Proliferation Assay IC50 ± SD.
The subject of data set [5] is NCI-H358. Briefly: BrdU proliferation assay, 2D cell culture. Type of data set: cell-based, human. The note with it: NCI-H358, 2D, n = 2, read-out: Proliferation Assay IC50 ± SD.
The test system of data set [6] is A549. The data set is described as follows: BrdU proliferation assay, 2D cell culture. The following applies: A549, 2D, BrdU, n = 2, read-out: Proliferation Assay IC50 ± SD. Type of data set: cell-based, human.
In data set [7] the test system is HCC827. Briefly: BrdU proliferation assay, 3D hanging drop cell culture. Type of data set: cell-based, human. The note with it: HCC827, 3D, BrdU, n = 2, read-out: Proliferation Assay IC50 ± SD.
Data set [8] concerns NCI-H358. The data set is described as above. It is filed as cell-based, human. The following applies: NCI-H358, 3D, n = 2, read-out: Proliferation Assay IC50 ± SD.
In data set [9] the test system is A549. The data set is described as above. Type of data set: cell-based, human. The following applies: A549, 3D, BrdU, n = 2, read-out: Proliferation Assay IC50 ± SD.
Data set [10] relates to HCC827. The data set is described as follows: Cytotoxicity (viability) assay, 3D hanging drop cell culture. The note with it: read-out: Cytotoxicity Assay IC50 ± SD, HCC827 3D.
The test system of data set [11] is NCI-H358. Described as above. The following applies: read-out: Cytotoxicity Assay IC50 ± SD, NCI-H358 3D.
In data set [12] the test system is A549. The description is as above. The following applies: read-out: Cytotoxicity Assay IC50 ± SD, A549 3D.
Data set [13] relates to human lung fibroblast cell line MRC-5. Briefly: MTS cytotoxicity assay, 2D cell culture, normal lung fibroblasts. The note with it: read-out: Cytotoxicity Assay IC50 ± SD; MRC-5 2D; MRC-5 normal lung fibroblasts, 2D, 72 h, MTS; n = 2.
The subject of the next data set is S. cerevisiae ATCC 7752. The data set is described as follows: Broth microdilution testing (CLSI). Type of data set: cell-based, Saccharomyces cerevisiae. The following applies: broth microdilution, 16–24h at 37 °C, read-out: MIC S. cerevisiae ATCC 7752. How it is done:
as §1

A short description of data set [14]: Solubility in water (stock solutions).
The subject of data set [15] is poly dA-poly dT (DNA, polymer) A/T. Briefly: UV thermal melting at 260 nm. The note with it: Na+ (sodium cacodylate, I = 0.05 M), pH 7.0, r = [compound]/[polynucleotide phosphate] = 0.3, error ±0.5, per base.
The next data set relates to ctDNA. The data set is described as follows: Thermal melting experiments. Type of data set: binding, calf. The note with it: r = [compound]/[polynucleotide] = 0.3, pH 7.0, sodium cacodylate buffer I = 0.05 mol dm^−3; error ±0.5 °C. From the text:
(§2) The thermal stability of helices is usually affected by the non-covalent binding of small molecules to double-stranded nucleic acids. We determined the ΔTm value (the difference between the Tm value of free polynucleotide and a complex with a small molecule) for complexes of selected compounds with ctDNA and an alternating polynucleotide, poly(dAdT)2. […] Because of this, we determined ΔTm value with non-alternating AT-DNA, poly dA-poly dT as well.

The subject of data set [16] is poly(dAdT)2 (DNA, polymer) AT. Briefly: CD titration. The note with it: Na+ (sodium cacodylate, I = 0.05 M), pH 7.0, 25 °C, polynucleotide 3.0 × 10^-5 M.
In the next data set the test system is poly dA-poly dT. The data set is described as follows: Thermal melting experiments. It is filed as binding. The following applies: r = 0.3, pH 7.0, sodium cacodylate buffer I = 0.05 mol dm^−3; error ±0.5 °C.
Excerpt: as §2

For another data set, the system named is poly(dAdT)2. The data set is described as follows: Thermal melting experiments. It is filed as binding. The note with it: r = 0.3, pH 7.0, sodium cacodylate buffer I = 0.05 mol dm^−3; error ±0.5 °C.
Excerpt: as §2

A further data set relates to calf thymus DNA (ctDNA). Briefly: Fluorimetric titrations with ctDNA. The following applies: fluorescence titrations, Scatchard equation, pH 7.0, sodium cacodylate buffer I = 0.05 mol dm-3.
Data set [17] deals with poly(dAdT)2 (DNA, polymer) AT. Briefly: UV thermal melting at 260 nm. The following applies: Na+ (sodium cacodylate, I = 0.05 M), pH 7.0, r = [compound]/[polynucleotide phosphate] = 0.3, error ±0.5, per base.
Data set [18] can be described thus: MTS cytotoxicity assay, 2D cell culture, normal lung fibroblasts. The following applies: human, MRC-5 normal lung fibroblasts, 2D culture.
For data set [19], the system named is poly dA-poly dT (DNA, polymer) A/T. Briefly: CD titration. The note with it: Na+ (sodium cacodylate, I = 0.05 M), pH 7.0, 25 °C, polynucleotide 3.0 × 10^-5 M.
[20] abbreviates: HCC827, 3D hanging drop spheres, 72 h, n = 2.
[21] abbreviates: NCI-H358, 3D hanging drop spheres, 72 h, n = 2.
The mark [22] stands for this setting: A549, 3D hanging drop spheres, 72 h, n = 2.

Procedure for calf thymus DNA (ctDNA): The UV/vis spectra were recorded on a Varian Cary 100 Bio spectrophotometer, CD spectra on JASCO J815 spectrophotometer and fluorescence spectra on a Varian Cary Eclipse spectrophotometer.
Spectrophotometric titrations were performed at pH = 7 (I = 0.05 mol dm^−3, sodium cacodylate buffer) by adding portions of polynucleotide solution into the solution of the studied compound for fluorimetric experiments and CD experiments were performed by adding portions of the compound stock solution into the solution of a polynucleotide. In fluorimetric experiments excitation wavelengths of λexc = 350, 370 and 390 nm were used to avoid the inner filter effect caused due by increasing absorbance of the polynucleotide (Figures S3 and S4). Emission was collected in the range λem = 400–600 nm (SI).
aTitration data were processed using Scatchard equation, correlation coefficients were >0.97-
0.99 for all calculated Ks

For `N#CC(=Cc1ccc(-c2ccc([N+](=O)[O-])cc2)o1)c1nc2cc([N+](=O)[O-])ccc2[nH]1` [Compound 18, (E,Z)-2-(5(6)-Nitrobenzimidazol-2-yl)-3-[5-(4-nitrophenyl)furan-2-yl]acrylonitrile], the MIC in the data set with S. aureus ATCC 29213 (broth microdilution), in the data set with E. coli ATCC 25922 and in the data set with S. cerevisiae ATCC 7752 was >100 µM throughout. Besides, the IC50 with HCC827 [1] (72 h, MTS, n = 2) was > 50 µM; with NCI-H358 [2] (72 h, MTS, n = 2) it was 3.5 ± 1.14 µM; in the data set on A549 [3] it was > 50 µM; in the data set with HCC827 [4] it was > 50 µM; in the data set on NCI-H358 [5], > 50 µM; with A549 [6], > 50 µM. Moreover, the IC50 with HCC827 [7], in the data set with NCI-H358 [8], in the data set on A549 [9], with HCC827 [10] (setting [20]), in the data set on NCI-H358 [11] (setting [21]) and in the data set with A549 [12] (setting [22]) was > 100 µM each time. In addition, the IC50 in [13] is > 50 µM.
`Cl.Clc1ccc(-c2ccc(-c3nc4ccc(C5=NCCN5)cc4s3)o2)cc1` [Compound 9, 2-[5-(4-Chlorophenyl)furan-2-yl]-6-(4,5-Dihydro-1H-imidazol-2-yl)benzothiazole hydrochloride] returned a melting point of 293 to 297 °C. In the data set on S. aureus ATCC 29213 (Staphylococcus aureus, ATCC29213, broth microdilution), the MIC stood at 25 µM. The molecule also registered a solubility in data set [14] of 1320 µM. Besides, the ΔTm in [15] is 15.2 °C. Besides, in the data set on E. coli ATCC 25922 (Escherichia coli, ATCC25922), the MIC is > 100 µM. For the same molecule, the “ΔTm ctDNA” value in the data set with ctDNA was found to be 1.8 °C. Also, in the data set on HCC827 [1] (Homo sapiens, HCC827, 72 h), the IC50 stood at 5.9 ± 0.58 µM. Besides, the IC50 in the data set with NCI-H358 [2] (Homo sapiens, NCI-H358, 72 h) turned out to be 4.48 ± 0.3 µM. Also, the IC50 with A549 [3] (Homo sapiens, A549, 72 h) amounted to 4.39 ± 0.79 µM. Moreover, the IC50 with HCC827 [4] (Homo sapiens) is 8.69 ± 2.79 µM. Also, the IC50 with NCI-H358 [5] (Homo sapiens) is 5.57 ± 0.81 µM. Moreover, the IC50 in the data set on A549 [6] (Homo sapiens) is 9.97 ± 5.37 µM. Also, the binding result in [16] is “yes”. In addition, the “ΔTm Poly dA-poly dT” value in the data set with poly dA-poly dT was 15.2 °C. Further, in the data set on poly(dAdT)2, the “ΔTm poly (dAdT)2” value is 4.6 °C. Moreover, in the data set on HCC827 [7] (Homo sapiens), the IC50 amounted to 20.3 ± 13.9 µM. In addition, in the data set with NCI-H358 [8] (Homo sapiens), the IC50 is 6.39 ± 3.29 µM. Moreover, in the data set on A549 [9] (Homo sapiens), the IC50 stood at 17 ± 3.53 µM. Further, in the data set with calf thymus DNA (ctDNA), the “Binding constants (logKs) with ctDNA” value is on record as 6.1. For the same molecule, the IC50 with HCC827 [10] (Homo sapiens, HCC827, 72 h) was 20 ± 7.92 µM. Further, the IC50 in the data set with NCI-H358 [11] (Homo sapiens, NCI-H358, 72 h) came out at 15.49 ± 0.07 µM. Besides, the IC50 in the data set with A549 [12] (Homo sapiens, A549, 72 h) is 16.8 ± 2.61 µM. Also, in data set [17], the ΔTm is 4.6 °C. In [18], this molecule had an IC50 at 72 h of 6.65 ± 0.18 µM. Besides, the MIC in the data set with S. cerevisiae ATCC 7752 (Saccharomyces cerevisiae, ATCC7752) was determined as 3.13 µM.
`Clc1ccc(-c2ccc(-c3nc4cc(C5=NCCN5)ccc4[nH]3)o2)cc1` (as salt: hydrochloride) [Compound 15, 2-[5-(4-Chlorophenyl)furan-2-yl]-5(6)-(4,5-dihydro-1H-imidazol-2-yl)benzimidazole hydrochloride] showed a melting point of 262 to 269 °C. For the same molecule, the binding entry in data set [19] is recorded as “yes”. The ΔTm in data set [15] worked out at 11.7 °C. In addition, the binding result in [16] is recorded as “yes”. For the same molecule, the ΔTm in data set [17] came out at 6.2 °C.
As for `N#CC(=Cc1ccc(-c2ccc(Cl)cc2)o1)c1nc2cc([N+](=O)[O-])ccc2[nH]1` [Compound 21, (E,Z)-3-[5-(4-Chlorophenyl)furan-2-yl]-2-(5(6)-nitrobenzimidazol-2-yl)acrylonitrile], the MIC with S. aureus ATCC 29213 (broth microdilution), with E. coli ATCC 25922 and with S. cerevisiae ATCC 7752 was >100 µM throughout. Besides, the IC50 in the data set on HCC827 [1] (72 h, MTS, n = 2) is > 50 µM; in the data set with NCI-H358 [2] (72 h, MTS, n = 2), 3.58 ± 0.95 µM; in the data set on A549 [3], > 50 µM; with HCC827 [4] it was > 50 µM; in the data set with NCI-H358 [5], > 50 µM; in the data set with A549 [6] it was > 50 µM. Also, the IC50 with HCC827 [7], in the data set with NCI-H358 [8], in the data set on A549 [9], with HCC827 [10] (setting [20]), in the data set on NCI-H358 [11] (setting [21]) and with A549 [12] (setting [22]) was > 100 µM each time. Besides, the IC50 in data set [13] was > 50 µM.
